Where two headings read alike, the source gives them in different places.
Key:
PLK-1 mRNA = assay: LS411N Xenograft Assay; assay type: in vivo, Nu/Nu mice; settings: percent knock down of PLK-1 mRNA vs control in LS411N tumors; IV 3 mg/kg daily for three days; LNP Chol/DSPC/S010 45/44/9/2
Method: Female Nu/Nu mice (6-8 weeks old) were implanted subcutaneously with 5×10^6 LS411N cells. Tumor growth was monitored by caliper measurement before treatment initiation. Mice bearing 150-250 mm^3 subcutaneous tumors were randomized and enrolled in the study. The stock siRNA formulations were diluted to […] with PBS for dosing. Animals enrolled in different groups received a single daily bolus IV injection of 3 mg/kg siRNA for three days. Tumors were harvested 24 hours post last injection to assess target gene regulation by qRT-PCR.
Lipid nanoparticles comprising lipid compounds of formula (I) and the PLK1-424 siRNA duplex sequence listed above were tested in the LS411N Xenograft Assay. The results of this assay are given in Table 5 below as a percent knock down of PLK-1 mRNA as compared to the control when administered as a single daily dose for three days at a dose of 3 mg/kg.

[1] = Polydispersity index (PDI) of lipid nanoparticle (dynamic light scattering); assay type: physicochemical
Method: Unless indicated otherwise, all PDIs referred to herein are the PDI of the fully formed nanoparticle, as measured by dynamic light scattering on a Malvern Zetasizer. The nanoparticle sample was diluted in phosphate buffered saline (PBS) so that the count rate was approximately 200-400 kcts. The data is presented in Tables 4 and 5 as a weighted average of the intensity measure.

[2] = Particle size of lipid nanoparticle (dynamic light scattering, Malvern Zetasizer); assay type: physicochemical
Text: The lipid nanoparticles have a size of about 1 to about 2,500 nm, about 1 to about 1,500 nm, about 1 to about 1,000 nm, in a sub-embodiment about 50 to about 600 nm, in a sub-embodiment about 50 to about 400 nm, in a sub-embodiment about 50 to about 250 nm, and in a sub-embodiment about 50 to about 150 nm. Unless indicated otherwise, all sizes referred to herein are the average sizes (diameters) of the fully formed nanoparticle, as measured by dynamic light scattering on a Malvern Zetasizer. The nanoparticle sample is diluted in phosphate buffered saline (PBS) so that the count rate is approximately 200-400 kcts. The data is presented as a weighted average of the intensity measure. Unless indicated otherwise, all particle size measurements referred to in Tables 4 and 5 are the Z-average particle size of the fully formed nanoparticle, as measured by dynamic light scattering on a Malvern Zetasizer. The nanoparticle sample was diluted in phosphate buffered saline (PBS) so that the count rate is approximately 200-400 kcts.

[3] = system: plasma Factor VII enzyme activity; assay: Mouse Factor VII dosing / Factor VII Activity Assay; assay type: in vivo; settings: percent knock down of plasma Factor VII activity, CD-1 mice, 48 h; for KD FVII 0.3 mg/kg: single IV dose 0.3 mg/kg; for KD FVII 0.03 mg/kg: single IV dose 0.03 mg/kg
Method in brief: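 Female CD-1 mice (~25 g) received a single IV tail-vein dose of lipid-nanoparticle-formulated Factor VII siRNA (0.3 or 0.03 mg/kg). Plasma taken ~48 h later; FVII activity measured chromogenically against vehicle-control plasma standard curve, reported as % knockdown.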

human leptin = assay: Mouse intravenous tail vein injection of modified synthetic leptin mRNA, human leptin ELISA; assay type: in vivo, C57BL/6 mouse; settings: human leptin in mouse plasma, 10 μg leptin mRNA, 24 h
Method: Before the tail vein injection, mouse body weights were recorded and diet weighted, with mice grouped according to their body weights. Mice were prepared by warming them under a heating lamp for ˜2 minutes, with the mice about 12 inches from heat lamp.
For the tail vein injection procedure, the mice were placed in a restrainer and their tails cleaned with 70% alcohol. A 27 gauge needle (Becton Dickinson, Catalogue #305109) connected with a 1 ml syringe (Becton Dickinson, Catalogue #309659) was inserted into the tail vein, with bevel facing up, and the syringe plunger was pulled backwards to ensure blood is drawn into the syringe. The desired volume of modified synthetic leptin mRNA was injected by hand with moderate pressure and speed. The needle was then withdrawn and bleeding stopped by adding pressure to injection site with gauze.
Single housed, 8-9 week old, male C57BL/6 mice were used for the in vivo study. FPLC purified modified synthetic leptin mRNA (SEQ ID NO: 5) in which the uridines were substituted with pseudouridine was packaged in a cationic lipid (N:P molar ratio=8:1) and then were diluted in injectable saline at a dose of 10 μg per average group body weight.
On day 0, animals were weighed and sorted according to average body weight. Mice were dosed, and food intake (FI) was recorded, on each of days 1-7 and days 9, 11, and 16.
Human leptin in mouse plasma was measured by ELISA. Antibodies purchased from the R&D Systems duoset (Cat# DY398E, part#840279 for capture antibody and part#840280 for detection antibody) were reconstituted using PBS and titered, again using PBS. The capture antibody was coated at 4 ug/ml in 30 ul/well on a white Nunc® Maxisorp 384 well plate (Cat#460372). After an overnight incubation at room temperature the capture antibody was aspirated and the plate blocked for 2 hours at room temperature with 90 ul/well of KPL milk blocker (Cat#50-82-00). Once the incubation was completed the plate was aspirated and recombinant standards and samples were added to the plate at 30 ul/well for 2 hours at 37° C. while shaking at 600 rpm. Sample/standard dilutions were made using casein sample diluent. Washing/aspiration 3 times with 100 ul/well followed, using Teknova plate wash solution (Cat# P1192). Next, detection antibody was diluted using casein detection antibody diluent to 12.5 ng/ml and added at 30 ul/well for 2 hours room temperature. After this incubation, the plate was washed again and a solution of poly-streptavidin-HRP (Cat#21140) at a 1:1250 dilution in HRP dilution buffer was added to each well (30 ul/well) and incubated for 30 minutes room temperature. A final wash/aspiration removed the HRP solution and a chemiluminescent substrate was added at 30 ul/well (Cat#1859678 & 1859679). The plate was quickly read using a SpectramaxM5 plate reader with a 50 ms integration time. The dynamic range of the ELISA is from 100-2,000 pg/ml (6.25-125 pM) of human leptin.

[4] = pKa measurement of cationic lipid (TNS fluorescence); assay type: physicochemical; settings: pKa of the cationic lipid of formula (I), Table 4
Method: Unless indicated otherwise, all pKa's referred to herein were measured at standard temperature and pressure. Also, unless otherwise indicated, all references to pKa are references to pKa measured using the following technique. 2 mM solution of lipid in ethanol was prepared by weighing the lipid and then dissolving it in ethanol. 0.3 mM solution of fluorescent probe TNS in ethanol:methanol 9:1 was prepared by first making 3 mM solution of TNS in methanol and then diluting to 0.3 mM with ethanol. An aqueous buffer containing 200 mM sodium phosphate dibasic and 100 mM citric acid was prepared. […] Using the Hamilton Microlab Star high throughput liquid handler and Hamilton run control software Software, 7.5 uL of probe/lipid mix were added to 242.5 uL of buffer in a 1 mL 96 well plate (model NUNC 260252, […] Nunc International). This was done with all twelve buffers. After mixing in 1 mL 96 well plate, 100 uL of each probe/lipid/buffer mixture was transferred to a 250 uL black with clear bottom 96 well plate (model COSTAR 3904, Corning). The fluorescence measurements are carried out on the SpectraMax M5 spectrophotometer using software SoftMax pro 5.2 and following parameters: After the measurement, the background fluorescence value of an empty well on the 96 well plate was subtracted from each probe/lipid/buffer mixture. The fluorescence intensity values were then normalized to the value at lowest pH. The normalized fluorescence intensity vs. pH chart was then plotted in the Microsoft Excel software. The twelve points were connected with a smooth line. The point on the line at which the normalized fluorescence intensity was equal to 0.5 was found. […] The pKa determined using this method is precise to about 0.1 pKa units.

[5] = system: respiratory syncytial virus F protein; assay: Immunization studies, anti-RSV-F titers; assay type: in vivo; settings: anti-RSV-F titer, BALB/c, course A = days 0 & 21, liposomes with 0.1 μg vA317 replicon (naked: 1 μg); for 2wp1 pool 1 / 2wp1 pool 2: 2 weeks after first dose; for 2wp2 pool 1 / 2wp2 pool 2: 2 weeks after second dose
Method: BALB/c were immunized with liposomes comprising DSPC, cholesterol, and various lipids of the invention (or, for comparison, the cationic lipid 1,2-dilinoleyloxy-N,N-dimethyl-3-aminopropane or ‘DLinDMA’). The liposomes encapsulated 0.1 μg of “vA317” self-replicating RNA replicon which encodes respiratory syncytial virus F protein (see WO2012/031043). […] Doses were given either on days 0 & 21 or days 0 & 42. Immune responses were assessed 2 weeks after each dose (2wp1, 2wp2), and in some cases also at 4 weeks after the second dose (4wp2).

[6] = FVII siRNA LNP, Chol/DSPC/PEG-DMG, molar ratio 45/44/9/2
[7] = FVII siRNA LNP, Chol/DSPC/S010, molar ratio 45/44/9/2
[8] = PLK1-424 siRNA LNP, Chol/DSPC/S010 45/44/9/2
[9] = FVII siRNA LNP, Chol/DSPC/PEG-DMG, molar ratio 45/44/9/2, Z-average
[10] = FVII siRNA LNP, Chol/DSPC/S010, molar ratio 45/44/9/2, Z-average
[11] = LNP Chol/DSPC/PEG-DMG 45/44/9/2
[12] = PLK1-424 siRNA LNP, Chol/DSPC/S011 45/44/9/2

SMILES	PDI [1, 6]	PDI [1, 7]	Size (nm) [2, 9] [nm]	Size (nm) [2, 10] [nm]	KD FVII 0.3 mg/kg [3, 11] [%]	KD FVII 0.03 mg/kg ([3]; LNP Chol/DSPC/S010 45/44/9/2) [%]	pKa ([4]; probe TNS, read-out: pKa)	further results
CCCCCCCC(=O)OCC(CCOc1cc(CN(C)C)cc(OCCC(COC(=O)CCCCCCC)OC(=O)CCCCCCC)c1)OC(=O)CCCCCCC (centres unmarked) [Example 91, 4,4′-((5-((dimethylamino)methyl)-1,3-phenylene)bis(oxy))bis(butane-1,2-diyl)tetraoctanoate]	0.06	0.053	124.3	111.9	99.0			LS411 KD 3 × 3 mg/Kg (PLK-1 mRNA): 45%; PDI [1, 8]: 0.032; Size (nm) [2, 8]: 136.1 nm
CCCCCCCC(=O)OC[C@@H](CCOc1cc(CN(C)C)cc(OCC[C@@H](COC(=O)CCCCCCC)OC(=O)CCCCCCC)c1)OC(=O)CCCCCCC [Example 92, (R)-4-(3-((S)-3,4-bis(octanoyloxy)butoxy)-5-((dimethylamino)methyl)phenoxy)butane-1,2-diyldioctanoate]						89.4		Leptin expression IV-C57BI/6, 24 h (human leptin): 1.34 ng/mL
CCCCCCCC(=O)OCCCCCC(=O)OCc1cc(COC(=O)CCCCCOC(=O)CCCCCCC)cc(CN(C)C)c1 [Example 85, (((5-((dimethylamino)methyl)-1,3-phenylene)bis(methylene))bis(oxy))bis(6-oxohexane-6,1-diyl)dioctanoate]								Leptin expression IV-C57BI/6, 24 h (human leptin): 1.78 ng/mL
CCCCC/C=C\C/C=C\CCCCCCCC(=O)Oc1cc(COC(=O)CCN(C)C)cc(OC(=O)CCCCCCC/C=C\C/C=C\CCCCC)c1 [Example 26, (9Z,9′Z,12Z,12′Z)-5-(((3-(dimethylamino)propanoyl)oxy)methyl)-1,3-phenylene bis(octadeca-9,12-dienoate)]	0.04	0.046	104.3	121.6	58.1		6.45	2wp1 pool 1 [5]: 4; 2wp1 pool 2 [5]: 4; 2wp2 pool 1 [5]: 10; 2wp2 pool 2 [5]: 10; 4wp2 pool 1 ([5]; 4 weeks after second dose): 10; 4wp2 pool 2 ([5]; 4 weeks after second dose): 10
CCCCC/C=C\C/C=C\CCCCCCCCOc1cc(CN(C)C)cc(OCCCCCCCC/C=C\C/C=C\CCCCC)c1 [Example 2, 1-(3,5-bis((9Z,12Z)-octadeca-9,12-dien-1-yloxy)phenyl)-N,N-dimethylmethanamine]	0.04	0.067	97.4	92.85	95.5	55		PDI [1, 12]: 0.1; Size (nm) [2, 12]: 88.19 nm; pKa ([4]; listed as Ex. 2): 5.46; 2wp1 pool 1 [5]: 217; 2wp1 pool 2 [5]: 259; 2wp2 pool 1 [5]: 12785; 2wp2 pool 2 [5]: 8232
CCCCCCCCOC(CCCOc1cc(CN(C)C)cc(OCCCC(OCCCCCCCC)OCCCCCCCC)c1)OCCCCCCCC [Ex. 126, 1-(3,5-bis(4,4-bis(octyloxy)butoxy)phenyl)-N,N-dimethylmethanamine]	0.075		95.2				5.54	KD FVII 0.03 mg/kg [3, 11]: 31.7%
CCCCCCCC(=O)OCCCCCCCCOc1cc(CN(C)C)cc(OCCCCCCCCOC(=O)CCCCCCC)c1 [Example 42, ((5-((dimethylamino)methyl)-1,3-phenylene)bis(oxy))bis(octane-8,1-diyl)dioctanoate]						92.8		LS411 KD 3 × 3 mg/Kg (PLK-1 mRNA): 50%
CCCCCCC(CCCCCC)CCCCCC(=O)OCCCCOc1cc(CN(C)C)cc(OCCCCOC(=O)CCCCCC(CCCCCC)CCCCCC)c1 [Ex. 113, ((5-((dimethylamino)methyl)-1,3-phenylene)bis(oxy))bis(butane-4,1-diyl)bis(7-hexyltridecanoate)]							6.03	KD FVII 0.03 mg/kg [3, 11]: 57.6%
